Data set [1] has as its system transplanted paddy rice plant and Bulrush. Description: Test Example 5: selectivity between transplanted paddy rice plant and weeds. It counts as in vivo. To be noted: (highest dosage with no phytotoxicity to paddy rice)/(lowest dosage with effective level 4 on Bulrush); rice 3000-100 g/ha, Bulrush 300-10 g/ha; 21 days. Here is the method: (§1) The standard of judgment for herbicidal efficacy (degree of growth inhibition) and phytotoxicity 4 . . . 90%-100% of herbicidal efficacy or phytotoxicity 3 . . . 70%-89% of herbicidal efficacy or phytotoxicity 2 . . . 40%-69% of herbicidal efficacy or phytotoxicity 1 . . . 1%-39% of herbicidal efficacy or phytotoxicity 0 . . . 0% of herbicidal efficacy or phytotoxicity
Phytotoxicity test for transplanted paddy rice plants was carried out, as in Test Example 3, by the treatment of 3000, 1000, 300 and 100 (g/ha of the active ingredient) dosage, and herbicidal test to weed post-emergence was carried out to Burlush seeded as in Test Example 2 treating at 300, 100, 30 and 10 (g/ha) dosage. The pots were kept in a hot house for 21 days after the treatment, and the phytotoxicity and the herbicidal efficacy was investigated and evaluated according to the standard in Test Example 1 by comparing with the untreated control. […] Further, as a comparative compound, the compound No. 6-28 described in the JP-A-2004-107322 was used.

The test system of data set [2] is false pimpernel. Put plainly: Test Example 2: herbicidal efficacy on rice paddy weeds post-emergence. As to conditions: post-emergence, one leaf stage, 21 days after treatment. It counts as in vivo, Lindernia pyxidaria.
In data set [3] the test system is bulrush. Description: Test Example 4: low dosage test for rice paddy weeds. The data set is classed as in vivo, Scirpus juncoides. To be noted: 300 g/ha as an active ingredient; plants treated at the one leaf stage; 21 days after treatment; vs untreated control.
From the text: as §1
A 75 cm^2 plastic pot was filled with soil (clay loam) and planted seeds of bulrush which is a rice paddy weed. After covering the top with 75 cm^3 soil, the pot was filled with water so that the soil submerged under 5 cm depth of water and kept in a hot house. The test plants, at the one leaf stage, were treated with the solution of a formulation containing the compound of the present invention as an active ingredient at the predetermined effective dosage (300 g/ha as an active ingredient). The pots were kept in a hot house for 21 days after the treatment and the herbicidal efficacy was investigated and evaluated according to the standard in Test Example 1 by comparing with the untreated control. Further, as a comparative compound, the compound No. 6-28 described in the JP-A-2004-107322 was used.

Data set [4] deals with barnyard glass. Description: Test Example 2: herbicidal efficacy on rice paddy weeds post-emergence. It counts as in vivo, Echinochloa crus-galli. As to conditions: post-emergence, one leaf stage, 21 days after treatment. In short, it runs like this: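 Plastic pots of 75 cm^2 were filled with clay loam soil and sown with barnyard glass and bulrush seeds, then topped with 75 cm^3 soil containing false pimpernel seeds. The pots were flooded to 5 cm water depth and held in a hot house. Twenty-one days after treatment, herbicidal efficacy was graded against an untreated control.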

Data set [5] deals with false pimpernel. Description: Test Example 1: herbicidal efficacy on rice paddy weeds pre-emergence. It counts as in vivo, Lindernia pyxidaria. To be noted: 21 days.
Data set [6] deals with paddy rice plant (cultivar: Nihonbare). Description: Test Example 3: phytotoxicity test for transplanted paddy rice plant. The data set is classed as in vivo. As to conditions: transplanted rice, 21 days after treatment. In short, it runs like this:
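Clay loam soil was placed in a 75 cm^2 plastic pot and flooded to a water depth of 5 cm. Two Nihonbare paddy rice plants at the two-leaf stage were transplanted 1 cm deep and grown in a hot house. After treatment, pots stayed in the hot house for 21 days, and phytotoxicity was then graded against an untreated control.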

Data set [7] deals with bulrush. Put plainly: Test Example 2: herbicidal efficacy on rice paddy weeds post-emergence. It counts as in vivo, Scirpus juncoides. To be noted: post-emergence, one leaf stage, 21 days after treatment.
Data set [8] has as its system bulrush. Description: Test Example 1: herbicidal efficacy on rice paddy weeds pre-emergence. As to conditions: 21 days. The data set is classed as in vivo, Scirpus juncoides.
Where [9] appears, read: dosage 1000 g/ha, treated 5 days after transplantation.

Regarding `CCC1CN(Cc2ccccc2N(C(=O)CC(C)C)S(=O)(=O)C(F)(F)F)C(=O)O1` (racemic) [1-53], in data set [1], the “Selective Index” value was found to be 10. Besides, the “False pimpernel post (herbicidal efficacy grade)” value (“False pimpernel post” below) in data set [2] (dosage 1000 g/ha) is 4 (90%-100% of herbicidal efficacy or phytotoxicity). In addition, the “Herbicide effect to Bulrush” value in data set [3] is reported as 3 (70%-89% of herbicidal efficacy or phytotoxicity). Moreover, in data set [4] (dosage 1000 g/ha), the “Burnyard grass post (herbicidal efficacy grade)” value (shortened to “Burnyard grass post”) is given as 4 (90%-100% of herbicidal efficacy or phytotoxicity). In data set [5] (dosage 1000 g/ha), the “False pimpernel pre (herbicidal efficacy grade)” value (“False pimpernel pre” for short) is 4 (90%-100% of herbicidal efficacy or phytotoxicity). In addition, the “Phytotoxicity to paddy rice” value in data set [6] (setting [9]) is 0 (0% of herbicidal efficacy or phytotoxicity). The “Bulrush post (herbicidal efficacy grade)” value in data set [7] (dosage 1000 g/ha) was 4 (90%-100% of herbicidal efficacy or phytotoxicity). Besides, the “Bulrush pre (herbicidal efficacy grade)” value in data set [8] (dosage 1000 g/ha) is recorded as 4 (90%-100% of herbicidal efficacy or phytotoxicity).
Take `COC(=O)N(c1ccccc1CN1CC(C)OC1=O)S(=O)(=O)C(F)(F)F` (racemic) [1-54]: in data set [1], the “Selective Index” value amounted to 33.3. Further, the “Herbicide effect to Bulrush” value in data set [3] was 4 (90%-100% of herbicidal efficacy or phytotoxicity). In addition, the “Burnyard grass post” value in data set [4] (dosage 1000 g/ha) is on record as 4 (90%-100% of herbicidal efficacy or phytotoxicity). In data set [5] (dosage 1000 g/ha), the “False pimpernel pre” value is listed as 4 (90%-100% of herbicidal efficacy or phytotoxicity). Besides, the “Phytotoxicity to paddy rice” value in data set [6] (setting [9]) was 0 (0% of herbicidal efficacy or phytotoxicity). Further, the “Bulrush post (herbicidal efficacy grade)” value in data set [7] (dosage 1000 g/ha) is listed as 4 (90%-100% of herbicidal efficacy or phytotoxicity). For the same molecule, the “Bulrush pre (herbicidal efficacy grade)” value in data set [8] (dosage 1000 g/ha) is on record as 4 (90%-100% of herbicidal efficacy or phytotoxicity).
With `CCC1(C)CN(Cc2ccccc2NS(=O)(=O)C(F)(F)F)C(=O)O1` (racemic) [1-59], in data set [1], the “Selective Index” value is on record as 3.3. Also, in data set [2] (dosage 300 g/ha), the “False pimpernel post” value is on record as 4 (90%-100% of herbicidal efficacy or phytotoxicity). Besides, in data set [3], the “Herbicide effect to Bulrush” value is given as 4 (90%-100% of herbicidal efficacy or phytotoxicity). Moreover, the “Burnyard grass post” value in data set [4] (dosage 300 g/ha) is on record as 3 (70%-89% of herbicidal efficacy or phytotoxicity). Moreover, the “False pimpernel pre” value in data set [5] (dosage 300 g/ha) was 4 (90%-100% of herbicidal efficacy or phytotoxicity). The “Phytotoxicity to paddy rice” value in data set [6] (dosage 300 g/ha) is 3 (70%-89% of herbicidal efficacy or phytotoxicity). Moreover, in data set [7] (dosage 300 g/ha), the “Bulrush post (herbicidal efficacy grade)” value was 4 (90%-100% of herbicidal efficacy or phytotoxicity). The “Bulrush pre (herbicidal efficacy grade)” value in data set [8] (dosage 300 g/ha) was 4 (90%-100% of herbicidal efficacy or phytotoxicity).
For the molecule `CCC1(C)CN(Cc2ccccc2N(C(=O)OCC(C)C)S(=O)(=O)C(F)(F)F)C(=O)O1` (racemic) [1-60], the “Selective Index” value in data set [1] is listed as “≧30”. Further, in data set [2] (dosage 1000 g/ha), the “False pimpernel post” value was 4 (90%-100% of herbicidal efficacy or phytotoxicity). The “Herbicide effect to Bulrush” value in data set [3] was 4 (90%-100% of herbicidal efficacy or phytotoxicity). The “Burnyard grass post” value in data set [4] (dosage 1000 g/ha) was 4 (90%-100% of herbicidal efficacy or phytotoxicity). Further, the “False pimpernel pre” value in data set [5] (dosage 1000 g/ha) is listed as 4 (90%-100% of herbicidal efficacy or phytotoxicity). In addition, in data set [6] (setting [9]), the “Phytotoxicity to paddy rice” value is 3 (70%-89% of herbicidal efficacy or phytotoxicity). Besides, the “Bulrush post (herbicidal efficacy grade)” value in data set [7] (dosage 1000 g/ha) is on record as 4 (90%-100% of herbicidal efficacy or phytotoxicity). For the same molecule, the “Bulrush pre (herbicidal efficacy grade)” value in data set [8] (dosage 1000 g/ha) is 4 (90%-100% of herbicidal efficacy or phytotoxicity).
With `CC(C)C1(C)CN(Cc2ccccc2NS(=O)(=O)C(F)(F)F)C(=O)O1` (racemic) [1-101], the “Selective Index” value in data set [1] is 10. In data set [2] (dosage 1000 g/ha), the “False pimpernel post” value was 4 (90%-100% of herbicidal efficacy or phytotoxicity). The “Herbicide effect to Bulrush” value in data set [3] is on record as 4 (90%-100% of herbicidal efficacy or phytotoxicity). The “Burnyard grass post” value in data set [4] (dosage 1000 g/ha) is listed as 4 (90%-100% of herbicidal efficacy or phytotoxicity). Also, the “False pimpernel pre” value in data set [5] (dosage 1000 g/ha) is 4 (90%-100% of herbicidal efficacy or phytotoxicity). Also, the “Phytotoxicity to paddy rice” value in data set [6] (setting [9]) is reported as 1 (1%-39% of herbicidal efficacy or phytotoxicity). For the same molecule, in data set [7] (dosage 1000 g/ha), the “Bulrush post (herbicidal efficacy grade)” value is listed as 4 (90%-100% of herbicidal efficacy or phytotoxicity). Besides, in data set [8] (dosage 1000 g/ha), the “Bulrush pre (herbicidal efficacy grade)” value was 4 (90%-100% of herbicidal efficacy or phytotoxicity).
`CC(C)COC(=O)N(c1ccccc1CN1CC(C)(C(C)C)OC1=O)S(=O)(=O)C(F)(F)F` (racemic) [1-102]: the “Selective Index” value in data set [1] amounted to 10. In addition, the “False pimpernel post” value in data set [2] (dosage 1000 g/ha) was 4 (90%-100% of herbicidal efficacy or phytotoxicity). Also, the “Herbicide effect to Bulrush” value in data set [3] is on record as 4 (90%-100% of herbicidal efficacy or phytotoxicity). The “Burnyard grass post” value in data set [4] (dosage 1000 g/ha) was 4 (90%-100% of herbicidal efficacy or phytotoxicity). For the same molecule, the “False pimpernel pre” value in data set [5] (dosage 1000 g/ha) is 4 (90%-100% of herbicidal efficacy or phytotoxicity). The “Phytotoxicity to paddy rice” value in data set [6] (setting [9]) is 1 (1%-39% of herbicidal efficacy or phytotoxicity). For the same molecule, the “Bulrush post (herbicidal efficacy grade)” value in data set [7] (dosage 1000 g/ha) is listed as 4 (90%-100% of herbicidal efficacy or phytotoxicity). Besides, the “Bulrush pre (herbicidal efficacy grade)” value in data set [8] (dosage 1000 g/ha) is reported as 4 (90%-100% of herbicidal efficacy or phytotoxicity).
Take `CCC1(C)CN(Cc2ccccc2N(C(=O)OCC(C)(C)C)S(=O)(=O)C(F)(F)F)C(=O)O1` (racemic) [1-105]: in data set [1], the “Selective Index” value was determined as 10. Moreover, the “False pimpernel post” value in data set [2] (dosage 1000 g/ha) was 4 (90%-100% of herbicidal efficacy or phytotoxicity). For the same molecule, the “Herbicide effect to Bulrush” value in data set [3] was 4 (90%-100% of herbicidal efficacy or phytotoxicity). Besides, the “Burnyard grass post” value in data set [4] (dosage 1000 g/ha) is listed as 4 (90%-100% of herbicidal efficacy or phytotoxicity). Moreover, in data set [5] (dosage 1000 g/ha), the “False pimpernel pre” value is listed as 4 (90%-100% of herbicidal efficacy or phytotoxicity). Also, in data set [6] (setting [9]), the “Phytotoxicity to paddy rice” value was 1 (1%-39% of herbicidal efficacy or phytotoxicity). In data set [7] (dosage 1000 g/ha), the “Bulrush post (herbicidal efficacy grade)” value was 4 (90%-100% of herbicidal efficacy or phytotoxicity). For the same molecule, the “Bulrush pre (herbicidal efficacy grade)” value in data set [8] (dosage 1000 g/ha) is recorded as 4 (90%-100% of herbicidal efficacy or phytotoxicity).
As for `O=C1OC(C2CC2)(C2CC2)CN1Cc1ccccc1NS(=O)(=O)C(F)(F)F` [1-170], the “Selective Index” value in data set [1] is 10. In data set [2] (dosage 1000 g/ha), the “False pimpernel post” value is reported as 4 (90%-100% of herbicidal efficacy or phytotoxicity). For the same molecule, the “Herbicide effect to Bulrush” value in data set [3] is recorded as 4 (90%-100% of herbicidal efficacy or phytotoxicity). For the same molecule, the “False pimpernel pre” value in data set [5] (dosage 1000 g/ha) was 4 (90%-100% of herbicidal efficacy or phytotoxicity). Also, the “Phytotoxicity to paddy rice” value in data set [6] (setting [9]) is recorded as 2 (40%-69% of herbicidal efficacy or phytotoxicity). The “Bulrush post (herbicidal efficacy grade)” value in data set [7] (dosage 1000 g/ha) is recorded as 4 (90%-100% of herbicidal efficacy or phytotoxicity). Moreover, the “Bulrush pre (herbicidal efficacy grade)” value in data set [8] (dosage 1000 g/ha) was 4 (90%-100% of herbicidal efficacy or phytotoxicity).
As to `COC(=O)N(c1ccccc1CN1CC(C2CC2)(C2CC2)OC1=O)S(=O)(=O)C(F)(F)F` [1-172], in data set [1], the “Selective Index” value was 10. In addition, the “False pimpernel post” value in data set [2] (dosage 1000 g/ha) is listed as 4 (90%-100% of herbicidal efficacy or phytotoxicity). Besides, the “Herbicide effect to Bulrush” value in data set [3] is given as 4 (90%-100% of herbicidal efficacy or phytotoxicity). The “False pimpernel pre” value in data set [5] (dosage 1000 g/ha) was 4 (90%-100% of herbicidal efficacy or phytotoxicity). For the same molecule, in data set [6] (setting [9]), the “Phytotoxicity to paddy rice” value was 1 (1%-39% of herbicidal efficacy or phytotoxicity). In data set [7] (dosage 1000 g/ha), the “Bulrush post (herbicidal efficacy grade)” value was 4 (90%-100% of herbicidal efficacy or phytotoxicity). The “Bulrush pre (herbicidal efficacy grade)” value in data set [8] (dosage 1000 g/ha) was 4 (90%-100% of herbicidal efficacy or phytotoxicity).
